# Source: patent US5684026A, “Aminocyclopentane derivative” (priority 1994, dated 1997)
# Key:
# [1] = target: T1, β-Galactosidase (E. Coli, EC. 3.2.1.23) (Escherichia coli, UniProt P00722); test: β-Galactosidase (E. coli) enzyme inhibition assay (o-nitrophenyl β-D-galactopyranoside); type: biochemical; conditions: pH 7.3, room temperature, 30 minutes; read-out: IC50 (M) β-Galactosidase (E. coli)
# T1 construct: purchased Sigma; host or cells: E. coli
# Method: (§1) By using a 96-well microplate, the absorbance (at 405 nm) of liberated p- or o-nitrophenol was measured with a microplate reader (MPR-4Ai, manufactured by Tosoh Corporation).
# (§2) The enzymes employed herein [α-glucosidase (Baker's yeast), β-glucosidase (Almonds), α-galactosidase (E. coli), β-galactosidase (E. coli) and β-galactosidase (Bovine Liver)] were all purchased from Sigma.
# (§3) The substrates (p- or o-nitrophenylglycoside) of these enzymes were all purchased from Sigma.
# 4) β-Galactosidase (E. Coli, EC. 3.2.1.23) [described in G. R. Craven, E. Steers, Jr. and C. B. Anfinsen, J. Biol. Chem., 240, 2468-2477 (1965)]
# Into each well were introduced an aqueous solution of a sample (2 μl), a buffer (153 μl), a 20 mM solution of o-nitrophenyl β-D-galactopyranoside in a buffer (25 μl), a 100 mM 2-mercaptoethanol (10 μl) and a (10 μg/ml) enzyme solution in the buffer (10 μl) to give a total volume of 200 μl. After incubating at room temperature (20°-30° C.) for 30 minutes, the absorbance (A405) of o-nitrophenol liberated by this enzyme reaction was measured. To give the blank absorbance (Ablank), the sample (2 μl), the substrate (25 μl), the buffer solution (163 μl) and 2-mercaptoethanol (10 μl) were incubated in the same manner followed by the measurement of the absorbance. To give the control absorbance (Acontrol), on the other hand, water (2 μl), the substrate (25 μl), the buffer solution (153 μl), 2-mercaptoethanol (10 μl) and the enzyme solution (10 μl) were incubated in the same manner followed by the measurement of the absorbance. A 50 mM phosphate buffer solution (pH 7.3, prepared from KH2 PO4 and K2 HPO4, containing 1.3 mM of MgCl2) was employed as the buffer for the enzyme reaction. The IC50 was determined in the same manner as employed in the case of α-glucosidase.
# B16 melanoma cells = test: Cytotoxicity, survival ratio by Trypan blue staining; type: cell-based; conditions: 5-100 μM, 24 hours
# Method: After 24 hours, the medium was replaced with Dulbecco-modified Eagle medium containing each sample. The incubation was continued under the same conditions for additional 24 hours. Then the cells were harvested by adding EDTA, washed with PBS and stained with 0.3% Trypan blue solution to thereby determine the survival ratio of the cells.
# [2] = tested on: α-Galactosidase (E. Coli, EC. 3.2.1.22); test: α-Galactosidase enzyme inhibition assay (p-nitrophenyl α-D-galactopyranoside); type: biochemical; conditions: pH 6.5, room temperature, 15 minutes
# Method: as §1, §2, §3
# 3) α-Galactosidase (E. Coli, EC. 3.2.1.22) [described in H. Suzuki, S-C. Li and Y-T. Li, J. Biol. Chem., 245, 781-786 (1970)]
# Into each well were introduced an aqueous solution of a sample (1 μl), a buffer (74 μl), a 9.9 mM solution of p-nitrophenyl α-D-galactopyranoside in a buffer (20 μl) and a (50 μg/ml) enzyme solution in the buffer (5 μl) to give a total volume of 100 μl. After incubating the resulting mixture at room temperature (20°-30° C.) for 15 minutes, the reaction was ceased by adding a 0.2M borate buffer solution (pH 9.8, prepared from NaOH and H3 BO3, 100 μl). Then the absorbance (A405) of p-nitrophenol liberated by this enzyme reaction was measured. To give the blank absorbance (Ablank), the sample (1 μl), the substrate (20 μl) and the buffer solution (79 μl) were incubated in the same manner and the 0.2M borate buffer solution (100 μl) was added followed by the measurement of the absorbance. To give the control absorbance ([…]), on the other hand, water (1 μl), the substrate (20 μl), the buffer solution (74 μl) and the enzyme solution (5 μl) were incubated in the same manner and the borate buffer solution (100 μl) was added followed by the measurement of the absorbance. A 0.1M phosphate buffer solution (pH 6.5, prepared from KH2 PO4 and K2 HPO4) was employed as the buffer for the enzyme reaction. The IC50 was determined in the same manner as employed in the case of α-glucosidase.
# [3] = target: β-Glucosidase (Almonds, EC 3.2.1.21); test: β-Glucosidase enzyme inhibition assay (p-nitrophenyl β-D-glucopyranoside); type: biochemical
# Method: as §1
# Incubation was carried out at 37° C. by using a natural incubator (Compact NIB-10, manufactured by Iwaki Glass Co., Ltd.).
# as §2, §3
# 2) β-Glucosidase (Almonds, EC 3.2.1.21) [described in A. Kobayashi, Agr. Biol. Chem., 26, 203-207 (1962)]
# Into each well were introduced an aqueous solution of a sample (1 μl), a 0.33 mM solution of p-nitrophenyl β-D-glucopyranoside in a buffer (98 μl) and a (0.4 mg/ml) enzyme solution in the buffer (1 μl) to give a total volume of 100 μl. After incubating at 37° C. for 45 minutes, the reaction was ceased by adding a 1M aqueous solution of sodium carbonate (100 μl). Then the absorbance (A405) of p-nitrophenol liberated by this enzyme reaction was measured. To give the blank absorbance (Ablank), the sample (1 μl) and the substrate (99 μl) were incubated in the same manner and an aqueous solution of sodium carbonate (100 μl) was added followed by the measurement of the absorbance. […] As the buffer, a 0.1M acetate buffer solution (pH 5.0, prepared from NaOAc and AcOH) was employed. The IC50 was determined in the same manner as employed in the case of α-glucosidase.
# T1 sequence (P00722 2-1024 limits assumed): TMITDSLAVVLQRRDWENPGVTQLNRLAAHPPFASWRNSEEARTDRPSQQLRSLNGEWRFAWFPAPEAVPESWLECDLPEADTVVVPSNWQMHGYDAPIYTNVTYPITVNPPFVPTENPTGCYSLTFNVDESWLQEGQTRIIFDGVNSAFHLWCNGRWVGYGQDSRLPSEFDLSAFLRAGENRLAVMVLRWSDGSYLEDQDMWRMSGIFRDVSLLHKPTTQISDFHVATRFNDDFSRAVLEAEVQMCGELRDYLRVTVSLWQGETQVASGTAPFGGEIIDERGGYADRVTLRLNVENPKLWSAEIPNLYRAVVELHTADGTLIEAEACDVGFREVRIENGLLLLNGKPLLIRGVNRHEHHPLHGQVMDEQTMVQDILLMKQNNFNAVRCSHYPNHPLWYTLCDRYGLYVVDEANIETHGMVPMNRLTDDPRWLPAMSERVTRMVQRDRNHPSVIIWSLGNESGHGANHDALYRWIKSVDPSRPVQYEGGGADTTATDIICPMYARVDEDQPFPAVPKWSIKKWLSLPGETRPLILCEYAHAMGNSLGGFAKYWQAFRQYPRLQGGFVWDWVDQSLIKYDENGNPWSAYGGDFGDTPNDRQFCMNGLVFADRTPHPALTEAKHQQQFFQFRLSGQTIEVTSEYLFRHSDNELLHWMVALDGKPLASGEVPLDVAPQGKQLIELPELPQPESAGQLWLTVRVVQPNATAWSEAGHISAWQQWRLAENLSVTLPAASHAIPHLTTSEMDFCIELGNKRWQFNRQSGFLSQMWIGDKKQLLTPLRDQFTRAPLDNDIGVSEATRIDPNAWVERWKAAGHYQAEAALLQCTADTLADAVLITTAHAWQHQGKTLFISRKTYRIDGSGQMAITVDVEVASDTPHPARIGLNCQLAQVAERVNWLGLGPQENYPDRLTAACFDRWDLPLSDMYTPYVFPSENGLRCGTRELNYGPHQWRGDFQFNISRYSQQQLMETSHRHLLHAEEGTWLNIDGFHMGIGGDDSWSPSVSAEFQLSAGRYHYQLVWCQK
compound,measurement,setting,value
"OC[C@@]12OC(Nc3ccccc3)=N[C@@H]1[C@H](O)[C@@H](O)[C@@H]2O [Compound 1-2L, (1S,5R,6S,7R,8S)-1-hydroxymethyl-3-phenylamino-2-oxa-4-azabicyclo[3.3.0]oct-3-ene-6,7,8-triol]",IC50,[1],> 0.0003 M
same,cytotoxicity (in words),B16 melanoma cells,no cytotoxicity
same,IC50,[2],> 300 µM
same,IC50,"[3]; pH 5.0, 37° C., 45 minutes",> 300 µM
same,inhibitory activity against β-glucosidase (in words),[3]; summary of Table 1,weak inhibitory activities
